Measurements from publication PMC6594919 (Pharmacology Research & Perspectives, 2019).

What was measured:
[1] = In vitro microdialysis with the intravenous EIRUS CVC catheter: drug concentrations in medium and dialysate, relative recovery (RRT, RRU); settings: perfusate NaCl 0.9% 5 μL/min, 37°C; for Concentration dialysate: EIRUS catheter 5000 Da cutoff, immunoassay, mean (range)
[2] = Unbound drug concentration in the external medium by ultrafiltration (Centrifree) and immunoassay; settings: mean (range)
[3] = Human plasma, immunoassay, triplicate (gentamicin marked **)
[4] = Human serum, immunoassay, triplicate (gentamicin repeated twice)
[5] = Medium 5: 0.2 mmol/L phosphate buffer with albumin 40 g/L in NaCl 0.9% pH 6.9, immunoassay, triplicate

| SMILES | Concentration dialysate ([1]; Human plasma, triplicate (gentamicin marked **)) | Concentration dialysate ([1]; Human serum, triplicate (gentamicin repeated twice)) | Concentration dialysate ([1]; Medium 3: 0.2 mmol/L phosphate buffer pH 7.4, triplicate) | Concentration dialysate ([1]; Medium 5: 0.2 mmol/L phosphate buffer with albumin 40 g/L in NaCl 0.9% pH 6.9, triplicate) | Unbound drug concentration medium [2, 3] | Unbound drug concentration medium [2, 4] | Unbound drug concentration medium [2, 5] | Time after which a constant (stable) recovery was observed ([1]; EIRUS catheter, t-test: significant difference prior to 60 minutes, none after) [min] | Unbound drug concentration medium ([2]; Medium 4: 0.2 mmol/L phosphate buffer with albumin 40 g/L pH 7.1, immunoassay, triplicate) | Unbound drug concentration medium ([2]; Medium 6: 0.2 mmol/L phosphate buffer with albumin 40 g/L in NaCl 1.8%, immunoassay, repeated twice) |
| --- | --- | --- | --- | --- | --- | --- | --- | --- | --- | --- |
| CNC(C)C1CCC(N)C(OC2C(N)CC(N)C(OC3OCC(C)(O)C(NC)C3O)C2O)O1 (stereo not shown) [Gentamicin] | 8.4 (7.1‐9.6) mg/L | 7.1 (5.8‐8.3) mg/L | 21.5 (21.1‐21.8) mg/L | 7.5 (7.4‐7.8) mg/L | 8.9 (7.7‐10.9) mg/L | 7.7 (6.6‐8.9) mg/L | 7.3 (7.2‐7.4) mg/L |  |  |  |
| CN[C@H](CC(C)C)C(=O)N[C@H]1C(=O)N[C@@H](CC(N)=O)C(=O)N[C@H]2C(=O)N[C@H]3C(=O)N[C@H](C(=O)N[C@H](C(=O)O)c4cc(O)cc(O)c4-c4cc3ccc4O)[C@H](O)c3ccc(c(Cl)c3)Oc3cc2cc(c3O[C@@H]2O[C@H](CO)[C@@H](O)[C@H](O)[C@H]2O[C@H]2C[C@](C)(N)[C@H](O)[C@H](C)O2)Oc2ccc(cc2Cl)[C@H]1O [Vancomycin] |  |  |  |  | 13.2 (10.0‐14.9) mg/L | 13.2 (13.2‐13.2) mg/L | 10.3 (10.3‐10.4) mg/L | 60 | 6.7 (6.6‐7.4) mg/L | 13.3 (13.3‐13.3) mg/L |
